How the values were obtained:
Format in all cases: physicochemical
[1] = Residual ratio of GGA in eye drops held in various plastic or glass containers, 40° C., 75% RH, 2 hours; settings: Table 4, various container materials
Method: (§1) In accordance with the measurement conditions for the elution test described in PFSB/ELD Notification No. 0412007 “teprenone 100 mg/g fine granule”, the GGA concentration of each eye drop was determined from the area value of the 5Z-mono-cis form (Ac) and the area value of the all-trans form (At) using Japanese pharmacopoeia “teprenone reference standard (all-trans form:5Z-mono-cis form=about 6:4 (weight ratio), Pharmaceutical and Medical Device Regulatory Science Society of Japan)” or teprenone (Wako Pure Chemical Industries) as a reference standard under the HPLC measurement conditions described below. For the eye drop containing teprenone (all-trans form:5Z-mono-cis form=3:2 (weight ratio)), the GGA content was calculated by summing the amounts of the all-trans form and the 5Z-mono-cis form. […]
Five mL of each of the eye drops was poured into various plastic or glass containers (volume: 10 to 15 mL) with a glass volumetric pipette and the containers were sealed. […] The all-trans form content (g/100 mL) in each of the eye drops was quantified under the HPLC conditions described above immediately after the production and after being left to stand for a predetermined period of time, and the residual ratio (%) was calculated.

[2] = Test for residual ratio of GGA No. 1: storage of eye drops in glass or PET containers; settings: Tables 1 to 3, glass and PET containers
Method: as §1
A polyethylene terephthalate container (8 mL) (the container for Rohto Dryaid EX, Rohto Pharmaceutical) was completely filled with each of the eye drops in an aseptic manner. […] The teprenone or all-trans form content (g/100 mL) in each of the eye drops was quantified under the HPLC conditions described above immediately after the production and after being left to stand for a predetermined period of time, and the residual ratio (%) was calculated. […]

[3] = Test for residual ratio of GGA No. 2: eye drops in LDPE or HDPE eye drop containers, 40° C., 75% RH; settings: Table 6, LDPE and HDPE eye drop containers
Method: To a surfactant (POE castor oil and POE hydrogenated castor oil 60) warmed to 65° C., the all-trans form and optionally ascorbyl tetraisopalmitate were added and dissolved under stirring in a hot water bath at 65° C. for 2 minutes. Water at 65° C. was added and each buffer was added under stirring to give a homogeneous solution. The pH and osmotic pressure were adjusted with hydrochloric acid or sodium hydroxide.
Ten mL of each of the thus obtained eye drops was poured into a 13 mL eye drop container (material: low density polyethylene or high density polyethylene; shape: the same as that of the container for Namida Rohto Dry Eye (trade name) (Rohto Pharmaceutical)) with a glass volumetric pipette and the container was sealed.
For these eye drops, the stability test was performed by leaving them to stand in the upright position at 40° C., 75% RH for 2 hours, 8 hours, and 24 hours. The all-trans form content (g/100 mL) in each of the eye drops was quantified by HPLC immediately after the production and after being left to stand for a predetermined period of time, and the residual ratio (%) was calculated.

In the case of `CCCCCCCCCCCCCCCC(=O)OC/C=C(C)/C=C/C=C(C)/C=C/C1=C(C)CCCC1(C)C` [retinol palmitate], the “Effect of added fat-soluble antioxidant on loss of the GGA content” value [1] is reported as “greatly reduced the loss of the GGA content”.

For `Cc1cc(C(C)(C)C)c(O)c(C(C)(C)C)c1` [BHT, butylhydroxytoluene], the “Effect of added fat-soluble antioxidant on loss of the GGA content” value [2] was “greatly reduced the loss of the GGA content”.

For `CCCCCCCCC(CCCCCC)C(=O)OC[C@H](OC(=O)C(CCCCCC)CCCCCCCC)[C@H]1OC(=O)C(OC(=O)C(CCCCCC)CCCCCCCC)=C1OC(=O)C(CCCCCC)CCCCCCCC` (stereo partly drawn) [ascorbyl tetraisopalmitate], the “Effect of added fat-soluble antioxidant on adsorption of GGA to the container wall” value [3] was “reduced adsorption of GGA to the wall of the containers in a dose-dependent manner”.
